The results in this text go back to PubChem BioAssay AID1963436 (Molecular Pharmacology Branch, DTP, NCI, 2024).

SMILES strings stand for the structures. “And” between values parts separate entries of the source, which are not always exact repeats. Equal values may be shown once.

This assay deals with OVCAR-5 complex spheroid (HUVEC/MSC), viability % T/C. Put plainly: Anticancer human tumor OVCAR-5 cell line growth inhibition [Asc].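 On all read-outs here: spheroids exposed to agents for 7 days before readout.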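 On viability, T/C: 100% = DMSO vehicle-treated wells.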 The settings on record: for viability, T/C: stronger effect = lower value. The method in brief: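 Complex spheroids combining tumor cells with HUVEC endothelial cells and human MSCs, at 37 degrees C, 5% CO2; agents tested alone or combined, half-log dilutions from at or near clinical Cmax, or 10 microM if Cmax unknown.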

The mark [1] stands for this setting: curve of first compound, second compound 0.03 µM.
The mark [2] stands for this setting: curve of first compound, second compound 0.0949 µM.
Setting [3] is: curve of first compound, second compound 0.3 µM.
The mark [4] stands for this setting: curve of first compound, second compound 0.949 µM.
Setting [5] is: curve of first compound, second compound 3 µM.
Setting [6] is: second compound 0.03 µM, first compound 0.0316 µM.
[7] abbreviates: second compound 0.03 µM, first compound 0.1 µM.
Where [8] appears, read: second compound 0.03 µM, first compound 0.316 µM.
[9] abbreviates: second compound 0.03 µM, first compound 1 µM.
Setting [10] is: second compound 0.0949 µM, first compound 0.0316 µM.
[11] abbreviates: second compound 0.0949 µM, first compound 0.1 µM.
The mark [12] stands for this setting: second compound 0.0949 µM, first compound 0.316 µM.
Where [13] appears, read: second compound 0.0949 µM, first compound 1 µM.
Setting [14] is: second compound 0.3 µM, first compound 0.0316 µM.
The mark [15] stands for this setting: second compound 0.3 µM, first compound 0.1 µM.
[16] abbreviates: second compound 0.3 µM, first compound 0.316 µM.
[17] abbreviates: second compound 0.3 µM, first compound 1 µM.
Setting [18] is: second compound 0.949 µM, first compound 0.0316 µM.
Where [19] appears, read: second compound 0.949 µM, first compound 0.1 µM.
[20] abbreviates: second compound 0.949 µM, first compound 0.316 µM.
Setting [21] is: second compound 0.949 µM, first compound 1 µM.
Where [22] appears, read: second compound 3 µM, first compound 0.0316 µM.
[23] abbreviates: second compound 3 µM, first compound 0.1 µM.
The mark [24] stands for this setting: second compound 3 µM, first compound 0.316 µM.
The mark [25] stands for this setting: second compound 3 µM, first compound 1 µM.

Broadly, the IC50 is the concentration that inhibits the measured activity by half. In general, viability, T/C refers to the ratio of treated to control. Take `O=C(c1cc(Cc2n[nH]c(=O)c3ccccc23)ccc1F)N1CCN(C(=O)C2CC2)CC1` + CCN1C(C(=O)NC23CCC(C(=O)O)(CC2)CC3)C(c2cccc(Cl)c2F)C2(C(=O)Nc3cc(Cl)ccc32)C12CCCCC2: the IC50 runs as follows: under setting [1], over 10000 nM; under setting [2], over 10000 nM; under setting [3], over 10000 nM; under setting [4], over 10000 nM; under setting [5], over 10000 nM. In addition, the viability, T/C runs as follows: under setting [6], 96%; under setting [7], 104%; under setting [8], 83.9%; under setting [9], 86.8%; (second compound 0.03 µM, first compound 3.16 µM) 92.5%; (second compound 0.03 µM, first compound 10 µM) 83.3%. In addition, the viability, T/C under setting [10] was 101%; the viability, T/C under setting [11] is 110%; the viability, T/C under setting [12] is 93.8%; the viability, T/C under setting [13] was 85.8%; the viability, T/C (second compound 0.0949 µM, first compound 3.16 µM) is 85.4%; the viability, T/C (second compound 0.0949 µM, first compound 10 µM) is 85%. Further, the viability, T/C under setting [14] is 101%; the viability, T/C under setting [15] is 97.2%; the viability, T/C under setting [16] is 97.7%; the viability, T/C under setting [17] was 75.1%; the viability, T/C (second compound 0.3 µM, first compound 3.16 µM) was 86.3%; the viability, T/C (second compound 0.3 µM, first compound 10 µM) is 82.7%. Also, the viability, T/C was 106% under setting [18]; 105% under setting [19]; 102% under setting [20]; 92% under setting [21]; 89% (second compound 0.949 µM, first compound 3.16 µM); 97.6% (second compound 0.949 µM, first compound 10 µM). Also, the viability, T/C is, setting by setting: under setting [22], 104%; under setting [23], 115%; under setting [24], 111%; under setting [25], 96.5%; (second compound 3 µM, first compound 3.16 µM) 88.9%; (second compound 3 µM, first compound 10 µM) 91.5%.
For the molecule `C=C(F)C(=O)N1CCN(c2nc(OCC3CCCN3C)nc3c2CCN(c2cccc4cccc(Cl)c24)C3)CC1CC#N` (stereo unspecified), the viability, T/C was 102% and 108% and 105% (compound 0.0316 µM); 100% and 107% and 97.9% (compound 0.1 µM); 83.5% and 91.4% and 89.7% (compound 0.316 µM); 54.5% and 60.8% and 67.8% (compound 1 µM); 10.6% and 8.67% and 19.2% (compound 3.16 µM); 0.23% and 0.22% and 0.3% (compound 10 µM). Further, where the note is “curve of compound”, the half-maximal inhibitory concentration (IC50) is 1050 nM and 1210 nM and 1490 nM.
Consider `C=CC(=O)N1CCN(c2nc(=O)n(-c3c(C)ccnc3C(C)C)c3nc(-c4c(O)cccc4F)c(F)cc23)C(C)C1` (stereo unspecified), for which the viability, T/C by setting is: (compound 0.0316 µM) 98.8% and 111% and 105%; (compound 0.1 µM) 103% and 112% and 98%; (compound 0.316 µM) 110% and 116% and 104%; (compound 1 µM) 122% and 114% and 107%; (compound 3.16 µM) 120% and 115% and 111%; (compound 10 µM) 97% and 100% and 104%. Moreover, the 50% inhibitory concentration (IC50) (curve of compound) was over 10000 nM.
Consider `O=C(c1cc(Cc2n[nH]c(=O)c3ccccc23)ccc1F)N1CCN(C(=O)C2CC2)CC1`, for which the viability, T/C was 106% and 108% and 101% (compound 0.0316 µM); 98.9% and 98.3% and 106% (compound 0.1 µM); 92.3% and 94.9% and 95% (compound 0.316 µM); 96% and 91.9% and 93.1% (compound 1 µM); 93.5% and 97.9% and 94.9% (compound 3.16 µM); 76.2% and 81% and 83.6% (compound 10 µM). Where the note is “curve of compound”, the IC50 was over 10000 nM.
For the molecule `O=C(c1ccc(F)c(F)c1Nc1ccc(I)cc1F)N1CC(O)([C@@H]2CCCCN2)C1` + CNC(C)C(=O)NC1CN(S(=O)(=O)c2cccc(S(=O)(=O)N3CCC4CCC(C(=O)NC(c5ccccc5)c5ccccc5)N4C(=O)C(NC(=O)C(C)NC)C3)c2)CCC2CCC(C(=O)NC(c3ccccc3)c3ccccc3)N2C1=O, the IC50 is, setting by setting: (curve of first compound, second compound 0.01 µM) 110 nM; (curve of first compound, second compound 0.0316 µM) 108 nM; (curve of first compound, second compound 0.1 µM) 76.2 nM; (curve of first compound, second compound 0.316 µM) 49.2 nM; (curve of first compound, second compound 1 µM) 72.6 nM. The viability, T/C (second compound 0.01 µM, first compound 0.00316 µM) is 92.2%; the viability, T/C (second compound 0.01 µM, first compound 0.01 µM) was 80.4%; the viability, T/C (second compound 0.01 µM, first compound 0.0316 µM) is 62.6%; the viability, T/C (second compound 0.01 µM, first compound 0.1 µM) was 51.2%; the viability, T/C (second compound 0.01 µM, first compound 0.316 µM) is 40.9%; the viability, T/C (second compound 0.01 µM, first compound 1 µM) was 31.8%. Also, the viability, T/C (second compound 0.0316 µM, first compound 0.00316 µM) is 83.6%; the viability, T/C (second compound 0.0316 µM, first compound 0.01 µM) is 78.1%; the viability, T/C (second compound 0.0316 µM, first compound 0.0316 µM) was 64.5%; the viability, T/C (second compound 0.0316 µM, first compound 0.1 µM) is 51.4%; the viability, T/C (second compound 0.0316 µM, first compound 0.316 µM) was 36.7%; the viability, T/C (second compound 0.0316 µM, first compound 1 µM) was 25.5%. The viability, T/C (second compound 0.1 µM, first compound 0.00316 µM) was 80%; the viability, T/C (second compound 0.1 µM, first compound 0.01 µM) was 79.1%; the viability, T/C (second compound 0.1 µM, first compound 0.0316 µM) was 62.5%; the viability, T/C (second compound 0.1 µM, first compound 0.1 µM) is 46.5%; the viability, T/C (second compound 0.1 µM, first compound 0.316 µM) was 34.2%; the viability, T/C (second compound 0.1 µM, first compound 1 µM) was 30.3%. Further, the viability, T/C runs as follows: (second compound 0.316 µM, first compound 0.00316 µM) 77.7%; (second compound 0.316 µM, first compound 0.01 µM) 67.3%; (second compound 0.316 µM, first compound 0.0316 µM) 54.5%; (second compound 0.316 µM, first compound 0.1 µM) 42.8%; (second compound 0.316 µM, first compound 0.316 µM) 32.8%; (second compound 0.316 µM, first compound 1 µM) 26.8%. In addition, the viability, T/C is, setting by setting: (second compound 1 µM, first compound 0.00316 µM) 79.8%; (second compound 1 µM, first compound 0.01 µM) 76.9%; (second compound 1 µM, first compound 0.0316 µM) 59.4%; (second compound 1 µM, first compound 0.1 µM) 47.7%; (second compound 1 µM, first compound 0.316 µM) 29.7%; (second compound 1 µM, first compound 1 µM) 24.1%.
Regarding `CCN1CCN(Cc2ccc(Nc3ncc(F)c(-c4cc(F)c5nc(C)n(C(C)C)c5c4)n3)nc2)CC1` + CCN1C(C(=O)NC23CCC(C(=O)O)(CC2)CC3)C(c2cccc(Cl)c2F)C2(C(=O)Nc3cc(Cl)ccc32)C12CCCCC2, the IC50 reads like this: under setting [1], over 1000 nM; under setting [2], over 1000 nM; under setting [3], over 1000 nM; under setting [4], over 1000 nM; under setting [5], over 1000 nM. The viability, T/C is 85.1% (second compound 0.03 µM, first compound 0.00316 µM); 93.5% (second compound 0.03 µM, first compound 0.01 µM); 68.1% under setting [6]; 64.7% under setting [7]; 65.4% under setting [8]; 56.5% under setting [9]. Besides, the viability, T/C runs as follows: (second compound 0.0949 µM, first compound 0.00316 µM) 98.2%; (second compound 0.0949 µM, first compound 0.01 µM) 91.8%; under setting [10], 67.2%; under setting [11], 66.1%; under setting [12], 61%; under setting [13], 62.8%. Also, the viability, T/C is 102% (second compound 0.3 µM, first compound 0.00316 µM); 86.5% (second compound 0.3 µM, first compound 0.01 µM); 77.7% under setting [14]; 59.9% under setting [15]; 68.3% under setting [16]; 62.4% under setting [17]. Further, the viability, T/C (second compound 0.949 µM, first compound 0.00316 µM) was 85.9%; the viability, T/C (second compound 0.949 µM, first compound 0.01 µM) is 92.3%; the viability, T/C under setting [18] is 74.2%; the viability, T/C under setting [19] is 65.1%; the viability, T/C under setting [20] is 69.1%; the viability, T/C under setting [21] was 62.4%. In addition, the viability, T/C is 106% (second compound 3 µM, first compound 0.00316 µM); 99.1% (second compound 3 µM, first compound 0.01 µM); 85.4% under setting [22]; 65.6% under setting [23]; 65.5% under setting [24]; 64.2% under setting [25].
